Results: US7435744B2, “Piperidine derivatives as NMDA receptor antagonists” (Gedeon Richter Vegyeszeti Gyar RT, priority 2001, dated 2008)
Read-outs that look alike come from different tables or passages of the source.

What was measured:
NMRI mice = assay: Mouse formalin test (second phase) for in vivo efficacy; conditions: p.o. 15 min before formalin, licking time 20 to 25 min after formalin, >20 = inhibition less than 50% at 20 mg/kg p.o.; for ED50: po
Procedure: Mouse Formalin Test for Measurement of In Vivo Efficacy
Injection of diluted formalin into the hind paw of rats or mouse is known to elicit a biphasic pain related behaviour measured as time spent by licking/biting of the injured paw. The second phase is generally defined as pain related events detected in the 15-60 min. time interval after formalin injection. It is known that NMDA receptors are involved in the second phase of response to formalin injection and this behavioural response is sensitive to blockade of NMDA receptors [Dickenson, A. and Besson J.-M. (Eds.): Chapter 1, pp. 6-7: Animal models of Analgesia; and Chapter 8, pp. 180-183: Mechanism of Central Hypersensitivity: Excitatory Amino Acid Mechanisms and Their Control—In Pharmacology of Pain. Springer-Verlag (Berlin) 1997.] Therefore, we performed the second phase of formalin test to characterise the efficacy of compounds in vivo. Inhibition of the second phase of response is considered to indicate an analgesic effect against chemically-induced persistent pain [Hunskaar, S., et al.: Formalin Test in Mice, a Useful Technique for Evaluating Mild Analgesics, Journal of Neuroscience Methods, 14 (1985) 69-76.] Male albino Charles River NMRI mice (20-25 g) were used. Prior to the experiment any solid food was withdrawn for 16 hours but the animals had free access to 20% glucose solution. The animals were allowed a 1 hour acclimatisation period spent in a glass cylinder (cc. 15 cm in diameter), then moved to an identical cylinder with a mirror placed behind to facilitate observation. The test substances were suspended in 5% tween-80 (10 ml per kg body weight). and administered orally by gavage 15 min before the formalin injection (20 μl of 1% formalin in 0.9% saline injected subcutaneously into the dorsal surface of the right hindpaw). The time spent by licking and biting of the injected paw was measured from 20 to 25 min. after the formalin injection.

[1] = target: T1, NMDA receptors (NR2B subunit containing) (Rattus norvegicus, UniProt P35439+Q00960); assay: Functional NMDA antagonist potency: intracellular calcium measurement in primary cultures of rat cortical neurons (fluorimeter plate reader); assay type: cell-based
T1 construct: endogenous in cells; host or cells: primary neocortical neurons from 17 day old Charles River rat embryos, 4-7 days in vitro
T1 sequence (Q00960 27-1482, other chains not shown): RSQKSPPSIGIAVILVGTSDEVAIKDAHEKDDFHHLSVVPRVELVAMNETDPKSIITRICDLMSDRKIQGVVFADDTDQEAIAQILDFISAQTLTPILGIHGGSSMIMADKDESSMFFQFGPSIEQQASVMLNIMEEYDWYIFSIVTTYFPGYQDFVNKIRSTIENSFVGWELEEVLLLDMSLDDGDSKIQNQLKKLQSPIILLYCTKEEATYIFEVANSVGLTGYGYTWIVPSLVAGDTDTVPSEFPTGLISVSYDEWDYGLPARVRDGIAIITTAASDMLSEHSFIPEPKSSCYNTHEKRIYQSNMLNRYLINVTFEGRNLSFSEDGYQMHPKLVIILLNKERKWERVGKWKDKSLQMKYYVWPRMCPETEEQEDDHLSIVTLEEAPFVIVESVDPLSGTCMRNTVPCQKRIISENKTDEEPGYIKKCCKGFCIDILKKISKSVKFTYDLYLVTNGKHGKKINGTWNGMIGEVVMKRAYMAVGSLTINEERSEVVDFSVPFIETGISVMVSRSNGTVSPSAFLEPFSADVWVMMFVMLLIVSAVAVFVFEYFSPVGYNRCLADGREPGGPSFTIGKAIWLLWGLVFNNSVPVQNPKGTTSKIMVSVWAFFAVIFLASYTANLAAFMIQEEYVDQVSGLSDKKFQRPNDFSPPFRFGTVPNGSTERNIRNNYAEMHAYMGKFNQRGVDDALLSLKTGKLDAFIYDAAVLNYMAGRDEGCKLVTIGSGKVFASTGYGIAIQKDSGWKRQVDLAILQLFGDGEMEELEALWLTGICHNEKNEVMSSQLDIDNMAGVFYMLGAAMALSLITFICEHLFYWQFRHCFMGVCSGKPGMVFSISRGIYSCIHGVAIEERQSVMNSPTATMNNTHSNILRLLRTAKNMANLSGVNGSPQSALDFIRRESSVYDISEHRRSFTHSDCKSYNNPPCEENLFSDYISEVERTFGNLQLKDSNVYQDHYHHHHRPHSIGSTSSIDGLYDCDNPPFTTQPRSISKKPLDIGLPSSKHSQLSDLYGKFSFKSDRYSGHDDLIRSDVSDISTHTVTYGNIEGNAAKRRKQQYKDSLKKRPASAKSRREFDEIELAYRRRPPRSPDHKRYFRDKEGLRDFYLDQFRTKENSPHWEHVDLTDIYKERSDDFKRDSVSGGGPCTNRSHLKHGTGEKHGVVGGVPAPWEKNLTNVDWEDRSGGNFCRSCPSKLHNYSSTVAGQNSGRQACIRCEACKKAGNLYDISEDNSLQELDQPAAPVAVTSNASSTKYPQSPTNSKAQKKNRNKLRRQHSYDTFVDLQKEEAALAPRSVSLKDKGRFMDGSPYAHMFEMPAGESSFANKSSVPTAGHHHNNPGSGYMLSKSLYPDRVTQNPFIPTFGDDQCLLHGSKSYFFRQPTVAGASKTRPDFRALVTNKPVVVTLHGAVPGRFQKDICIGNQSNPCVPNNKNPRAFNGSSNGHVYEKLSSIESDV
Excerpt: Assessing the Functional NMDA Antagonist Potency of Compounds in Primary Cultures of Rat Cortical Neurons Based on Measuring the Intracellular Calcium Concentration Using a Fluorimeter Plate Reader
It is known that during postnatal development the subunit composition of neuronal NMDA receptors is changing. […] According to data in the literature and to our own immunocytochemical examinations neuronal cells cultured for 4-7 days in vitro predominantly express the NR2B subunit, together with NR1 subunit. Therefore, functional test of NMDA antagonism in these cells reflects mainly an action on NR2B subunit containing receptors. Since NMDA receptors are known to be permeable to calcium ions upon excitation, the extent of NMDA receptor activation, and its inhibition by functional antagonists can be characterised by measuring the rise in the intracellular calcium concentration following agonist (NMDA) application onto the cells. Since there is very high sequence homology between rat and human NMDA receptors (99, 95, 97% for NR1, NR2A, and NR2B subunits, respectively), it is believed that there is little, if any, difference in their pharmacological sensitivity.
In: Protocols for Neural Cell Culture, eds: Fedoroff, S.; Richardson A., The Humana Press Inc., 13-38.] After isolation, the cells are plated onto standard 96-well microplates and the cultures are maintained in an atmosphere of 95% air-5% CO2 at 37° C. until testing.
The cultures are used for the intracellular calcium measurements after 4-7 days in vitro. […] Loading is stopped by washing twice with the solution used also during the measurement (140 mM NaCl, 5 mM KCl, 2 mM CaCl2, 5 mM HEPES [4-(2-hydroxyethyl)-1-piperazineethane-sulfonic acid], 5 mM HEPES-Na, 20 mM glucose, 10 μM glycine, pH=7.4). Then the test compound dissolved in the above solution (90 μl/well) is added. Intracellular calcium measurements are carried out with a plate reader fluorimeter. A rise is induced by application of 40 μM NMDA in Fluo-4-fluorescence that reflects the intracellular calcium concentration. Inhibitory potency of the test compound is assessed by measuring the reduction in the calcium elevation in the presence of different concentrations of the compound. After the measurement, a standard calibration procedure [Meth. Cell.
Inhibitory potency of a compound at a single concentration point is expressed as percent inhibition of the control NMDA response. Sigmoidal concentration-inhibition curves are fitted over the data and IC50 values are defined as the concentration that produces half of the maximal inhibition that could be achieved with the compound. Mean IC50 values are derived from at least three independent experiments.
(§1) wherein for NMDA IC50—IC50 is determined by the intracellular Ca^2+-concentartion assay on cortical neurons; and for Ro-binding IC50—IC50 is determined by the [^3H]-Ro 25,6981 binding assay on rat cerebral membranes.

NR2B subunit = target: T2, NR2B subunit (Rattus norvegicus, UniProt P35439+Q00960); assay: [3H]-Ro 25,6981 binding assay on rat cerebral membranes
T2 construct: from tissue; host or cells: forebrain membranes of male Wistar rats
T2 sequence (Q00960 27-1482, other chains not shown): as above
Procedure: Determining Binding of Compounds to NR2B Subunit by [^3H]-Ro 25,6981 Binding Assay
Briefly, membranes are isolated from the forebrain of male Wistar rats. They are incubated in the presence and absence of test compound for 2 hours at room temperature. […] The applied radioligand (^3H-Ro-25,6981) concentration is 4 nM.
as §1

[2] = rat cortical neurons 4-7 days in vitro, 40 μM NMDA, Fluo-4 intracellular Ca2+, read-out: NMDA IC50
[3] = rat forebrain membranes, 4 nM [3H]-Ro 25,6981, 2 hours at room temperature, read-out: Ro-binding IC50

| Structure (SMILES) | IC50 [1, 2] [µM] | IC50 (NR2B subunit; [3]) [µM] | ED50 (NMRI mice) [mg/kg] | other results |
| --- | --- | --- | --- | --- |
| O=c1[nH]c2ccc([S+]([O-])CCN3CCC(Cc4ccc(F)cc4)CC3)cc2o1 (centres unmarked) [CI-1041, 6-{2-[4-(4-fluoro-benzyl)-piperidin-1-yl]-ethanesulfinyl}-3H-benzooxazol-2-one, reference compound] |  |  | 5.3 | IC50 [1]: 0.0066 µM; IC50 (NR2B subunit): 0.004 µM |
| C[C@@H]([C@@H](O)c1ccc(O)cc1)N1CCC(O)(c2ccccc2)CC1 [CP 101,606, (1S,2S)-1-(4-hydroxyphenyl)-2-(4-hydroxy-4-phenylpiperidine-1-yl)-1-propanol, reference compound] |  |  | > 20 |  |
| O=C(CCN1CCC(Cc2ccc(F)cc2)CC1)c1ccc2[nH]c(=O)oc2c1 [EMD 95885, reference compound] | 0.035 | 0.0072 |  | ED50 (mg/kg p.o.) (NMRI mice): 5.9 mg/kg |
| O=C1Cc2cc(NC(=O)C(=O)N3CCC(Cc4ccc(F)cc4)CC3)ccc2N1 [Example 1, 2-[4-(4-Fluoro-benzyl)-piperidin-1-yl]-2-oxo-N-(2-oxo-2,3-dihydro-1H-indol-5-yl)-acetamide] |  |  | 0.46 |  |
| O=C(Nc1ccc2[nH]c(=O)[nH]c2c1)C(=O)N1CCC(Cc2ccc(F)cc2)CC1 [Example 2, 2-[4-(4-Fluoro-benzyl)-piperidin-1-yl]-2-oxo-N-(2-oxo-2,3-dihydro-1H-benzimidazol-5-yl)-acetamide] | 0.0007 | 0.0047 |  |  |
| O=C(Nc1ccc2oc(=O)[nH]c2c1)C(=O)N1CCC(Cc2ccc(F)cc2)CC1 [Example 4, 2-[4-(4-Fluoro-benzyl)-piperidin-1-yl]-2-oxo-N-(2-oxo-2,3-dihydro-benzoxazol-5-yl)-acetamide] | 4.71 | > 30 |  |  |
| O=C(Nc1ccc2[nH]c(=O)[nH]c2c1)C(=O)N1CCC(Cc2ccccc2)CC1 [Example 7, 2-(4-Benzyl-piperidin-1-yl)-2-oxo-N-(2-oxo-2,3-dihydro-1H-benzimidazol-5-yl)-acetamide] | 0.0014 | 0.0044 |  |  |
| O=C1COc2cc(NC(=O)C(=O)N3CCC(Cc4ccccc4)CC3)ccc2N1 [Example 24, 2-(4-Benzyl-piperidin-1-yl)-2-oxo-N-(3-oxo-3,4-dihydro-2H-benzo [1,4]oxazin-7-yl)-acetamide] | 0.113 | 0.214 |  |  |
| O=C(Nc1ccc2[nH]c(=O)oc2c1)C(=O)N1CCC(Oc2ccc(Cl)cc2)CC1 [Example 31, 2-[4-(4-Chloro-phenoxy)-piperidin-1-yl]-2-oxo-N-(2-oxo-2,3-dihydro-benzoxazol-6-yl)-acetamide] |  |  | 4.4 |  |
| Cc1ccc(CC2CCN(C(=O)C(=O)Nc3ccc4c(c3)CC(=O)N4)CC2)cc1 [Example 101, 2-[4-[4-Methyl-benzyl)-piperidin-1-yl]-2-oxo-N-(2-oxo-2,3-dihydro-1H-indol-5-yl)-acetamide] |  |  | 0.48 |  |
| O=C(CN1CCC(Cc2ccccc2)CC1)Nc1ccc2c(c1)CC(=O)N2 [Example 143, 2-(4-Benzyl-piperidin-1-yl)-N-(2-oxo-2,3-dihydro-1H-indol-5-yl)-acetamide] | 0.164 | 0.029 |  |  |
| CC(C(=O)Nc1ccc2[nH]c(=O)oc2c1)N1CCC(Cc2ccccc2)CC1 (centres unmarked) [Example 161, 2-(4-Benzyl-piperidin-1-yl)-N-(2-oxo-2,3-dihydro-1H-benzoxazol-6-yl)-propionamide] |  |  | 2.4 |  |
| O=C(CN1CCC(Cc2ccccc2)CC1)Nc1ccc(O)cc1 [Example 192, 2-(4-Benzyl-piperidin-1-yl)-N-(4-hydroxy-phenyl)-acetamide] |  |  | 17 |  |
| C[C@@H](CN1CCC(Cc2ccccc2)CC1)[C@@H](O)c1ccc(O)cc1 [Ro 25.6981, R—(R*,S*)-1-(4-hydroxyphenyl)-2-methyl-3-[4-(phenylmethyl)piperidin-1-yl]-1-propanol, reference compound] |  |  | > 20 | IC50 (NR2B subunit): 0.0059 µM |

Now from value to molecule, other results behind:

| IC50 [1, 2] [µM] | IC50 (NR2B subunit; [3]) [µM] | Structure (SMILES) | ED50 (NMRI mice) [mg/kg] | other results |
| --- | --- | --- | --- | --- |
| 0.023 | 0.0033 | Cc1ccc(CC2(O)CCN(CCOc3ccc(O)cc3)CC2)cc1 [Co-101244, 1-[2-(4-hydroxyphenoxy)ethyl]-4-hydroxy-4-(4-methylbenzyl)piperidine, reference compound] | > 20 |  |
|  | 0.0084 | Oc1ccc(OCCN2CCC(Cc3ccc(F)cc3)CC2)cc1 [Co-111103, 1-[2-(4-hydroxyphenoxy)ethyl]-4-(4-fluorobenzyl)piperidine, reference compound] | > 20 |  |
| 0.0032 | 0.018 | O=C(Nc1ccc2[nH]c(=O)oc2c1)C(=O)N1CCC(Cc2ccc(F)cc2)CC1 [Example 3, 2-[4-(4-Fluoro-benzyl)-piperidin-1-yl]-2-oxo-N-(2-oxo-2,3-dihydro-benzoxazol-6-yl)-acetamide] | 6.9 |  |
| 0.0024 | 0.0055 | O=C(Nc1ccc2[nH]c(=O)oc2c1)C(=O)N1CCC(Cc2ccccc2)CC1 [Example 8, 2-(4-Benzyl-piperidin-1-yl)-2-oxo-N-(2-oxo-2,3-dihydro-benzoxazol-6-yl)-acetamide] |  |  |
| 1.01 | 0.614 | CS(=O)(=O)Nc1cccc(NC(=O)C(=O)N2CCC(Cc3ccccc3)CC2)c1 [Example 12, 2-(4-Benzyl-piperidin-1-yl)-N-(3-methanesulfonylamino-phenyl)-2-oxo-acetamide] |  |  |
| 0.006 | 0.0017 | O=C(CN1CCC(Cc2ccccc2)CC1)Nc1ccc2[nH]c(=O)oc2c1 [Example 146, 2-(4-Benzyl-piperidin-1-yl)-N-(2-oxo-2,3-dihydro-benzoxazol-6-yl)-acetamide] |  |  |
| 1.33 | 0.121 | O=C(CN1CCC(Cc2ccccc2)CC1)Nc1ccc2[nH]ncc2c1 [Example 147, 2-(4-Benzyl-piperidin-1-yl)-N-(1H-indazol-5-yl)-acetamide] |  |  |
| 0.048 | 0.091 | O=C(CNc1ccc2[nH]c(=O)[nH]c2c1)N1CCC(Cc2ccc(F)cc2)CC1 [Example 197, 5-{2-[4-(4-Fluoro-benzyl)-piperidin-1-yl]-2-oxo-ethylamino}-1,3-dihydro-benzoimidazol-2-one] |  |  |
| 0.533 | 0.972 | O=C(CNc1ccc2[nH]ncc2c1)N1CCC(Cc2ccc(F)cc2)CC1 [Example 199, 1-[4-(4-Fluoro-benzyl)-piperidin-1-yl]-2-(1H-indazol-5-yl-amino)-ethanone] |  |  |
